# Test results as given in patent US20240009191A1, “METHOD AND COMPOSITION FOR THE TREATMENT OF DISEASE” (DIMERIX BIOSCIENCE PTY LTD, priority 2019, published 2024).
# Entries after “also recorded” stand apart in the source; their conditions may differ.
# Biological target: T1, AT1R-CXCR2 heteromer (Homo sapiens, UniProt P25025+P30556)
# T1 sequence (P30556 1-359): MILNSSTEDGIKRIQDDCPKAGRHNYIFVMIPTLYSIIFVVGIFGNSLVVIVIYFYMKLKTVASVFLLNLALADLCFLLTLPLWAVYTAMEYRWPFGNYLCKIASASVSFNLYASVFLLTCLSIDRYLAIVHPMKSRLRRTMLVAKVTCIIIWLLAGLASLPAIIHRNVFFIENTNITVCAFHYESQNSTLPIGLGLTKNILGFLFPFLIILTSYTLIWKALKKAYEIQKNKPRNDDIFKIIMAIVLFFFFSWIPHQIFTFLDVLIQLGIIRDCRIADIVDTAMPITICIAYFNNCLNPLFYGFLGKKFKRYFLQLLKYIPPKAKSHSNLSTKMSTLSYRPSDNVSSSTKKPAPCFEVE
# T1 sequence (P25025 1-360): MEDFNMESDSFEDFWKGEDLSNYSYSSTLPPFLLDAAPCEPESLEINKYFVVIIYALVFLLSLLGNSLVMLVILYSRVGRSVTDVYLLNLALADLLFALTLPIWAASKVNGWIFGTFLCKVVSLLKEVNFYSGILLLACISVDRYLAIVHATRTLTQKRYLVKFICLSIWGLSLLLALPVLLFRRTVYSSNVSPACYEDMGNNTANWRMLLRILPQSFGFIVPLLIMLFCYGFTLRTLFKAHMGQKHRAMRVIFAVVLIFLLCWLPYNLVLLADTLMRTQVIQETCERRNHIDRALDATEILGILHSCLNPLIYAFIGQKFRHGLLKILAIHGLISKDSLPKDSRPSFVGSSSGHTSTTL
# Experiment: BRET trafficking of AT1R/Rluc8 to Venus/Kras or Venus/Rab markers, presence of unlabelled CXCR2
# Format: cell-based
# Experimental: HEK293FT cells were seeded in 6-well plates at a density of approximately 700,000 cells/well and maintained at 37° C., 5% CO2 in Complete Media (DMEM containing 0.3 mg/ml glutamine, 100 IU/ml penicillin and 100 μg/ml streptomycin (Gibco/Thermo Fisher)) supplemented with 10% fetal calf serum (FCS; Bovogen). Transient transfections were carried out 24 h after seeding using FuGene6™ (Promega) according to manufacturer instructions. 24 h post-transfection, cells were washed with PBS, detached using 0.05% trypsin/0.53 mM EDTA, resuspended in HEPES-buffered phenol red free Complete Media containing 5% FCS and added to a poly-L-lysine-coated white 96-well microplate (Greiner Bio-One). 48 h post-transfection, bioluminescence resonance energy transfer (BRET) assays were carried out following pre-incubation of cells with EnduRen™ (Promega) at a final concentration of 30 μM, at 37° C., 5% CO2 for 2 h. BRET measurements were taken at 37° C. using the LUMlstar™ or CLARIOstar™ (BMG Labtech). Filtered light emissions were measured for 1 s in each of the ‘donor wavelength window’ (460-490 nm for LUMlstar™ or 410-490 nm for CLARIOstar™) and ‘acceptor wavelength window’ (520-550 nm for LUMlstar™ or 520-620 nm for CLARIOstar™).
# The BRET signal observed between interacting proteins is normalized by subtracting the background BRET ratio. This can be done in one of two ways (see Pfleger et al. (2006) Cell Signal 18:1664-1670; Pfleger et al. (2006) Nat Protoc 1:336-344): 1) the ratio of the 520-550 nm or 520-620 nm emission over the 460-490 nm or 410-490 nm emission for a cell sample containing only the donor construct is subtracted from the same ratio for a sample containing the interacting acceptor and donor fusion proteins; 2) the ratio of the 520-550 nm or 520-620 nm emission over the 460-490 nm or 410-490 nm emission for a cell sample treated with vehicle is subtracted from the same ratio for a second aliquot of the same cell sample treated with ligand. In the following examples, the second calculation will be used and the signal is described as ligand-induced BRET′. Furthermore, for data shown in FIGS. 4 to 20, all data points in a given set are corrected relative to the final data point prior to agonist treatment, which is fixed to zero. In keys on FIGS. 7 to 20, “>” means “followed by after 50 minutes”, with agonists added at time zero on the x-axes.
# The Receptor-Heteromer Investigation Technology (Receptor-HIT) is an assay configuration that provides insights into receptor complexes (Ayoub et al. (2015) PLoS One 10(3):e0119803). It is also known as GPCR-HIT when assessing GPCRs. It is an assay configuration whereby one receptor (eg. CXCR2) is labelled with one component (eg. Renilla luciferase variant Rluc8) of a proximity-based reporter system (eg. BRET), the complementary component of which (eg. Venus yellow fluorescent protein) is fused to a receptor interacting partner (eg. mGsi).
# Referring now to FIG. 3 (published in Tiulpakov et al (2016) Mol. Endocrinol. 30, 889-904), the proximity of Rluc8-tagged receptors to Venus-tagged Kras plasma membrane marker, or Venus-tagged Rabs specific for distinct subcellular locations, is monitored in live cells and in real-time using BRET. The Rab markers are: Venus/Rab5 (5) for early endosomes; Venus/Rab4 (4) for early endosome recycling; Venus/Rab11a (11) for recycling endosomes; Venus/Rab7 (7) for late endosomes/lysosomes; Venus/Rab9 (9) for late endosome trafficking to the trans-Golgi network; Venus/Rab1 (1) for endoplasmic reticulum trafficking to the cis-Golgi; Venus/Rab6 (6) for Golgi apparatus and trans-Golgi network; or Venus/Rab8 (8) for trans-Golgi network to plasma membrane.
substance,measurement,value
Angiotensin II [AngII],proximity of AT1R/Rluc8 to Venus/Kras (BRET),marked reduction; also recorded: does not result in a notable increase
same,proximity of AT1R/Rluc8 to Venus/Rab1 (BRET),increase
same,proximity of AT1R/Rluc8 to Venus/Rab4 (BRET),increase
same,proximity of AT1R/Rluc8 to Venus/Rab5 (BRET),substantial increase
same,proximity of AT1R/Rluc8 to Venus/Rab7 (BRET),increase
same,proximity of AT1R/Rluc8 to Venus/Rab8 (BRET),less of an effect
same,proximity of AT1R/Rluc8 to Venus/Rab9 (BRET),increase
same,proximity of AT1R/Rluc8 to Venus/Rab11a (BRET),substantial increase
